Tests used:
[1] = microbe, parasite or virus in culture; conditions: Mycobacterium tuberculosis, 96 h, read-out: pIC50 (converted)
[2] = microbe, parasite or virus in culture; conditions: Mycobacterium tuberculosis, 72 h, read-out: pIC50 (converted)

SMILES	IC50 [1] [µM]	IC50 [2] [µM]
CN1CCC(CNC(=O)c2cccc(C(F)(F)F)c2)c2ccccc21 (stereo not drawn)	> 50.1	45.5
CCCc1ccc(N2CCN(Cc3nc4ccccc4n3C)CC2)cc1	> 50.1	26
COc1ccc(C2SCC(=O)N2c2ncc(C)s2)cc1 (stereo not drawn)	30.1	5.8
Cc1cnc(N2C(=O)CSC2c2ccc(N(C)C)cc2)s1 (stereo not drawn)	5.45	7.14
CCN(CC)C(=O)CN1CCC2(C=Cc3cc(Cl)c(C)cc3O2)CC1	> 50.1	31.4
Clc1ccc(OCCc2cc(C3CCN(c4ncccn4)C3)n[nH]2)cc1 (stereo not drawn)	26.1	40
O=C1NC2(CCCN(C(=O)CCn3cccn3)C2)Oc2ccccc21 (stereo not drawn)	> 50.1	39.4
O=C(CCC1CCCC1)N1CCC(c2cc3ncccc3c(O)n2)CC1	0.855	> 50.1
NC(=O)NC(=O)CCN(Cc1ccccc1)CC1CCOCC1	35.7	28.7
CC(C)Oc1cccc(C(O)CNC(=O)NCc2cccs2)c1 (stereo not drawn)	30.8	> 50.1
Cc1ccc(C(=O)NCCCN(C)S(C)(=O)=O)cc1-n1cccc1	> 50.1	30.9
Cc1ccc(NC(C)C(=O)NCc2cccs2)cc1Cl (stereo not drawn)	5.63	5.25
COCCOCCNC(=O)C(C)Oc1ccccc1C(F)(F)F (stereo not drawn)	> 50.1	> 50.1
CC(C)c1nnc(CNc2ccc(SC(F)(F)F)cc2)o1	18.9	19.3
FC(F)Sc1ccc(NCc2nnc(C3CC3)o2)cc1	46.7	11.8
FC(F)(F)Sc1ccc(NCc2nnc(C3CC3)o2)cc1	14.3	36.4
Cc1noc(COCC(=O)N2CCCCC2c2nccs2)n1 (stereo not drawn)	> 50.1	> 50.1
COC(=O)c1ccc(N2CCC(N(C)c3ccccc3)CC2)nn1	12.3	37
COC(=O)c1ccc(N2CCC(C(O)c3ccccc3)CC2)nn1 (stereo not drawn)	20.5	24.3
CC(C)(C)Cc1nnc(NCc2ccsc2)o1	12.5	> 50.1
CC(C)Cc1nnc(NCc2ccsc2)o1	35.4	3.95
N#Cc1cccnc1NC1CCN(c2ccccc2OC(F)F)C1=O (stereo not drawn)	1.27	> 50.1
N#Cc1ccc(NCCC2CCN(CC(F)(F)F)CC2)nc1	14	15.8
CCc1nc(CN(C)Cc2nnc(-c3cccs3)o2)cs1	8.56	12.2
CCc1nc(CN(C)Cc2ncc(-c3cccs3)o2)cs1	31.4	31.1

SMILES	IC50 [1] [µM]	IC50 [2] [µM]
O=C(c1[nH]nc(C2CC2)c1Cl)N1CCCC1	> 50.1	> 50.1
COC(=O)c1cnc(/C=C/c2ccc(C(=O)O)cc2)s1	27.3	26.6
CC1(C)CCC(C(=O)N2CCCO2)c2ccccc21 (stereo not drawn)	> 50.1	> 50.1
Cc1nc(C2CCCN2Cc2cc(Cl)c3c(c2)OCCO3)no1 (stereo not drawn)	15.9	22.3
CC(CNC(=O)c1cnccn1)Oc1cccc(Br)c1 (stereo not drawn)	> 50.1	0.211
CC(CNC(=O)c1ccon1)Oc1cccc(Br)c1 (stereo not drawn)	32.6	25.7
CNC(=O)c1cccc(CNC(C)c2ccc(F)cc2N(C)C)c1 (stereo not drawn)	> 50.1	> 50.1
O=S(=O)(CCc1ccccc1)Cc1nc(C2CC2)no1	10.7	10.6
Cc1cc(CNc2ccc(C(F)(F)F)cc2)no1	15.6	19.8
CC(C)c1ccc(O)c(C(=O)NC2CCN(c3ncccn3)CC2)c1	24.7	20.4
O=C(CCc1ccc(Br)cc1)NCCc1nnc[nH]1	> 50.1	> 50.1
COc1c(Br)cccc1CCNC(=O)c1csnn1	> 50.1	> 50.1
CCOC(C)c1nc(Cn2cccn2)cs1 (stereo not drawn)	> 50.1	> 50.1
Cc1oc(-c2ccc(Cl)cc2)nc1C(=O)NC1=NCCS1	> 50.1	> 50.1
N#Cc1ccc(NCc2cccc(COC3CCOCC3)c2)nc1	> 50.1	> 50.1
CCN1CCN(S(=O)(=O)c2c[nH]c(C(C)C)n2)c2ccccc21	> 50.1	> 50.1
CC(C)CC(C(=O)N(C)Cc1ncnn1C)N1CCCCC1=O (stereo not drawn)	> 50.1	> 50.1
CC(c1ccccc1)N(C)C(=O)CN1CCCc2cccc(F)c21 (stereo not drawn)	> 50.1	31.2
Cc1cnn(CC2CCCN2c2ncnc3c2CCC3)c1 (stereo not drawn)	> 50.1	> 50.1
COc1ccc(CNCCc2ccn(-c3ccccc3)n2)cc1O	> 50.1	> 50.1
CCCC(=O)NC(C)(C)Cc1ccccc1OC	> 50.1	3.52
O=C(c1cccnc1)N(CCO)Cc1cc(Br)ccc1F	> 50.1	> 50.1
Cc1ccc(OCCSCCn2nc3ccccn3c2=O)cc1	> 50.1	> 50.1
O=C(NCC1(c2ccc(F)cc2)CC1)N1CCC2(CCOC2)C1 (stereo not drawn)	> 50.1	> 50.1
OCC(CO)Nc1ccc2c(Cl)ccc(Cl)c2n1	> 50.1	> 50.1

SMILES	IC50 [1] [µM]	IC50 [2] [µM]
COCCC(=O)N1CCN(CC2CC2)c2ccccc21	> 50.1	11.7
Cc1cccc(-c2nnc(C(C)N3CCn4c(C)nnc4C3)o2)c1 (stereo not drawn)	> 50.1	> 50.1
CC(c1ccccn1)N(C)C(=O)NCCn1c(=O)oc2ccccc21 (stereo not drawn)	> 50.1	> 50.1
CC(C)OCCn1nnnc1Cc1ccc(Br)cc1	14.5	35.5
CN(Cc1cnccn1)S(=O)(=O)c1ccc(C(F)(F)F)nc1	> 50.1	> 50.1
COC(=O)CN(C)Cc1cc(Br)cs1	> 50.1	> 50.1
N#Cc1cc(Cl)ccc1N1CCN(C(=O)C2CCC2)CC1	> 50.1	> 50.1
Clc1ccc(Cc2nc(CNCCn3cccn3)cs2)cc1	24.8	22.8
O=C(NCC(CO)Cc1ccc(Cl)cc1)c1ccncc1Cl (stereo not drawn)	> 50.1	> 50.1
COc1cccc(CNCc2cccnc2-n2cccn2)c1OC	> 50.1	> 50.1
Cc1nc(C2CN(Cc3ccc(F)cc3Br)CCO2)no1 (stereo not drawn)	11.2	33
Fc1ccc(C(NCc2nnc(-c3ccco3)o2)C2CCC2)cc1 (stereo not drawn)	4.62	0.884
CN(C)c1cc2c(nn1)CCN(C(=O)c1cc3ccccc3[nH]c1=O)C2	> 50.1	> 50.1
COc1ccc(C(=O)NCCCC2(C3OCCO3)CCOCC2)cc1	> 50.1	> 50.1
Cc1cnn(CCNCCCOc2ccc3c(c2)OCO3)c1	13.6	13.9
FC(F)Oc1ccc(NCc2nc(C3CC3)no2)c(OC(F)F)c1	> 50.1	24.2
COc1ccc(COCC(O)CN(C)c2ccc(C)cc2C)cc1 (stereo not drawn)	16.8	16
CN(CCS(=O)(=O)c1cc(Cl)ccc1Cl)CC(N)=O	> 50.1	24.7
Cc1ccc(NCc2ncc(C(C)(C)C)o2)c(Cl)c1	9.14	8.32
CCOC1CCN(CCc2nc(-c3cccc(Cl)c3)no2)CC1	28.2	32.4
O=C(c1c[nH]c2ccccc2c1=O)N1CCSCC1	> 50.1	27.8
CN(C)S(=O)(=O)c1ccc(CN2CCC(C(N)=O)CC2)o1	> 50.1	> 50.1
Cc1n[nH]cc1CNCC(c1ccsc1)N(C)C (stereo not drawn)	> 50.1	> 50.1
NC(=O)C1CCN(Cc2ccc(S(=O)(=O)N3CCCC3)o2)CC1	> 50.1	> 50.1
COCCC1(CNC(=O)NCC2CCCS2)CCCC1 (stereo not drawn)	> 50.1	> 50.1

SMILES	IC50 [1] [µM]	IC50 [2] [µM]
CCCc1nn(Cc2ccc(Br)s2)c(=O)o1	25.4	31.8
CCN(CC)S(=O)(=O)c1ccc(CNC(=O)c2cc(C)on2)cc1	26.2	> 50.1
CC(C)N(CCNC(=O)c1[nH]nc2ccc(I)cc12)C(C)C	15.8	17.9
Cc1nnc(SCCC(=O)N(C)Cc2c(F)cccc2Cl)[nH]1	> 50.1	> 50.1
Cc1nnc(SCCC(=O)N(C)Cc2ccc(F)cc2F)[nH]1	> 50.1	> 50.1
Cc1nnc(SCCC(=O)N(C)Cc2ccc(Cl)s2)[nH]1	27.3	> 50.1
CN(Cc1cccc(OC(F)(F)F)c1)C(=O)c1cnsn1	33.3	24.3
N#Cc1ccc(NC2CCN(c3ncccn3)CC2)cc1C(F)(F)F	6.68	12.2
CC(C)c1nsc(NC2CCOC3(CCCC3)C2)n1 (stereo not drawn)	6.74	12
COC(=O)c1ccc(C(=O)NCc2ccc(Br)cc2)cn1	25.6	24.8
CC(C)CCC(C)NC(=O)Nc1ccccn1 (stereo not drawn)	5.47	13.6
N#Cc1cc(F)c(NCCc2ccc(F)cc2)c(F)c1	22.5	> 50.1
CC(Cn1cccn1)NCc1csc(-c2ccc3c(c2)OCO3)n1 (stereo not drawn)	> 50.1	1.35
CCc1nc(CNc2ccc(F)cc2I)no1	2.44	3.04
CC(C)CCOc1ccc(C(C)NC(=O)Cn2cccnc2=O)cc1 (stereo not drawn)	13.2	8.35
Cc1ccn(-c2ccc(NCc3ccccc3F)nn2)n1	7.29	32.8
CCc1nc(C2CCCN2C(=O)CCCOc2cccc(F)c2)no1 (stereo not drawn)	> 50.1	> 50.1
COCCN1CCN(C(C)C(=O)Nc2ccnn2C(C)C)CC1 (stereo not drawn)	> 50.1	> 50.1
CC(C)Oc1ccc(CSc2nnc(CN3CCCC3=O)o2)cc1	14.5	43.5
CC(C)c1cc(C(=O)N2CCN(Cc3ccsc3)CC2)n[nH]1	39.7	28.4
c1ccc2oc(NC3CCCN(Cc4noc(C5CC5)n4)C3)nc2c1 (stereo not drawn)	13.5	24.9
COc1cc2c(cc1CNC(Cc1cccs1)c1nccs1)OCO2 (stereo not drawn)	17.3	> 50.1
Cc1cc2c(cc1CNC(Cc1cccs1)c1nccs1)OCO2 (stereo not drawn)	> 50.1	24.4
CC(C)NCc1nc(-c2ccc3c(c2)OCO3)c[nH]1	> 50.1	> 50.1

Source: ChEMBL document CHEMBL3988442, “University of Dundee, Small-Polar-MMV Screening Library” (2021)
